For series [1], the system named is Antigen-specific multifunctional CD4+ T cells. In words: Antigen-specific multifunctional T cells (intracellular cytokine staining, flow cytometry) in spleen cells of immunized mice. The class given is in vivo, BALB/c mice. The following applies: adjuvanted Ovalbumin, CD4+ and CD8+ T cell populations. As for the experimental part:
FIG. 8: Antigen-specific multifunctional CD4+ T cells. (A) Groups of 3 BALB/c mice were immunized intramuscularly with PBS (control) or with three doses (14 days apart) of Ovalbumin (30 μg), alone or adjuvanted with c-di-AMP or aßGalCerMPEG or IPB 2033-2044 (15 μg). At 14 days after the second immunization, spleen cells were harvested, restimulated with Ovalbumin, intracellularly stained for double positive Th cytokines (IFN-γ, IL-2, TNF-α, IL-4 and IL-17), and analyzed by flow cytometry. […] At 14 days after the second immunization, spleen cells were harvested, restimulated with Ovalbumin, intracellularly stained for triple positive Th cytokines (IFN-γ, IL-2, TNF-α, IL-4 and IL-17), and analyzed by flow cytometry.
In order to characterize more accurately the cellular immune response, the production of intracellular cytokines was measured in CD4+ and CD8+ T cells. […]
Therefore, mice were immunized to assess the in vivo performance of CDA in an active vaccination setting. To assess vaccination effectivity, the frequencies of cytokine producers among the CD4+ and CD8+ T cell populations were evaluated by intracellular cytokine staining and flow cytometry. […] Thus, the frequency of T cells producing single cytokines or combinations (positive events/million) was analyzed by flow cytometry.
On the technique in general: In flow cytometry, cells or beads pass a laser one at a time.

For series [2] the following is noted: Ebensen et al J. Immunol. 179 (2007) 2065; cited from earlier work.

`Nc1ncnc2c1ncn2[C@@H]1O[C@@H]2COP(=O)(O)O[C@H]3[C@@H](O)[C@H](n4cnc5c(N)ncnc54)O[C@@H]3COP(=O)(O)O[C@H]2[C@H]1O` [CDA, c-di-AMP]: in series [1], the “frequency of triple, double and single cytokine producers among T cells” value is “increased the frequency of triple, double and single cytokine producers”.
As for `CCCCCCCCCCCCCCCCCCCCCCCCCC(=O)N[C@@H](CO[C@H]1O[C@H](CO)[C@H](O)[C@H](O)[C@H]1O)[C@H](O)[C@H](O)CCCCCCCCCCCCCC` [KRN7000], the solubility entry in series [2] is “low solubility”.

Source of the values: patent US12564631B2, “Phytosphingosine derivatives as adjuvants in immune stimulation” (Helmholtz-Zentrum für Infektionsforschung GmbH, priority 2020, dated 2026).
